Assay results taken from US20240158446A1, “CYCLIC COMPOUND HAVING SELECTIVE INHIBITORY ACTION ON KRAS OVER HRAS AND NRAS” (CHUGAI SEIYAKU KABUSHIKI KAISHA, priority 2021, published 2024).

Legend:
[1] = target: GDP-bound NRAS wild-type protein (Homo sapiens, UniProt P01111); test: Binding to NRAS by surface plasmon resonance (SPR), Single Cycle Kinetics; details: SPR, GDP-bound NRAS wild-type protein vs GDP-bound KRAS wild-type protein
[2] = target: GDP-bound HRAS wild-type protein (Homo sapiens, UniProt P01112); test: Binding to HRAS by surface plasmon resonance (SPR), Single Cycle Kinetics; details: SPR, GDP-bound HRAS wild-type protein vs GDP-bound KRAS wild-type protein
GDP-bound HRAS wild-type protein, sequence (P01112 whole entry): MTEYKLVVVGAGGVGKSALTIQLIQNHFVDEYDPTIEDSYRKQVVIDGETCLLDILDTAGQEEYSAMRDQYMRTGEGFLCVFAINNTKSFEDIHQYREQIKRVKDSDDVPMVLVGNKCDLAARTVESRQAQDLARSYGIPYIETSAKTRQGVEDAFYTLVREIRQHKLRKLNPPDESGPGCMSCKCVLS

GDP-bound NRAS wild-type protein, sequence (P01111 whole entry): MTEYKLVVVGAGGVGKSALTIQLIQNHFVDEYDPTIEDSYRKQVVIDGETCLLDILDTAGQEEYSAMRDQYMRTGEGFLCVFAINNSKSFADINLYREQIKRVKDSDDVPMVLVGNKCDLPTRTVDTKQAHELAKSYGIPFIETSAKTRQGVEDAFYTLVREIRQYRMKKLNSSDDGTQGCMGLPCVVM

| Compound | NRAS/KRAS (ratio of KD value for NRAS to KD value for KRAS) [1] | HRAS/KRAS (ratio of KD value for HRAS to KD value for KRAS) [2] | NRAS/KRAS (ratio of KD value with respect to NRAS to KD value with respect to KRAS) [1] | HRAS/KRAS (ratio of KD value with respect to HRAS to KD value with respect to KRAS) [2] |
| --- | --- | --- | --- | --- |
| CC[C@H](C)[C@@H]1NC(=O)[C@H](CC(C)C)N(C)C(=O)C[C@@H](C(=O)N2CCOCC2)N(C)C(=O)[C@H](C2CCCC2)N(C)C(=O)C2(CCC2)NC(=O)[C@@H]2C[C@@H](OCC3CC3)CN2C(=O)[C@H](CCc2cc(F)c(C(F)(F)F)c(F)c2)NC(=O)CN(C)C(=O)[C@H](Cc2ccc(C(F)(F)F)cc2)N2CCCC[C@@H](C2=O)N(C)C(=O)CN(C)C1=O [PP1014] | C (A compound having a KD ratio of 0.1 or more and less than 3 is denoted as C) | C (A compound having a KD ratio of 0.1 or more and less than 3 is denoted as C) |  |  |
| CCC[C@H]1C(=O)N[C@@H](C2CCCC2)C(=O)N(C)CC(=O)N(C)[C@H]2C/C=C\CCN(C2=O)[C@@H](Cc2ccc(C)cc2)C(=O)N(C)CC(=O)N[C@@H](CCc2ccc(C(F)(F)F)c(Cl)c2)C(=O)N2C[C@H](OCC)C[C@H]2C(=O)NC2(CC(C)(C)C2)C(=O)N(C)[C@@H](CC(C)C)C(=O)N(C)[C@H](C(=O)N(C)C)CC(=O)N1C [PP2190] | A (a compound having 10 or more and less than 20 is denoted as A) | A (a compound having 10 or more and less than 20 is denoted as A) |  |  |
| C#CC[C@H]1C(=O)N[C@@H]([C@@H](C)CC)C(=O)N(C)CC(=O)N(C)[C@H]2C/C=C\CCN(C2=O)[C@@H](Cc2ccc(C(F)(F)F)cc2)C(=O)N(C)CC(=O)N[C@@H](CCc2ccc(C(F)(F)F)c(OC)c2)C(=O)N2C[C@@H](C)C[C@H]2C(=O)NC2(CCC2)C(=O)N(C)[C@@H](C2CCCC2)C(=O)N(C)[C@H](C(=O)N(C)CCC)CC(=O)N1C [PP2063] | AA (a compound having 20 or more is denoted as AA) | A (a compound having 10 or more and less than 20 is denoted as A) |  |  |
| CCO[C@@H]1C[C@H]2C(=O)NC3(CCC3)C(=O)N(C)[C@@H](C3CCCC3)C(=O)N(C)[C@H](C(=O)N3CCOCC3)CC(=O)N(C)[C@@H](CC3CC3)C(=O)N[C@@H]([C@@H](C)CC)C(=O)N(C)CC(=O)N(C)[C@H]3CCCCCN(C3=O)[C@@H](Cc3ccc(C(F)(F)F)cc3)C(=O)N(C)CC(=O)N[C@@H](CCc3cc(F)c(C(F)(F)F)c(F)c3)C(=O)N2C1 [PP0682] |  |  | B (a compound having 3 or more and less than 10 is denoted as B) | B (a compound having 3 or more and less than 10 is denoted as B) |
| CCO[C@@H]1C[C@H]2C(=O)NC3(CCC3)C(=O)N(C)[C@@H](C3CCCC3)C(=O)N(CCc3ccccc3)[C@H](C(=O)N3CCOCC3)CC(=O)N(C)[C@@H](CC(C)C)C(=O)N[C@@H]([C@@H](C)CC)C(=O)N(C)CC(=O)N(C)[C@H]3CCCCCN(C3=O)[C@@H](Cc3ccc(C(F)(F)F)cc3)C(=O)N(C)CC(=O)N[C@@H](CCc3cc(F)c(C(F)(F)F)c(F)c3)C(=O)N2C1 [PP0642] |  |  | B (a compound having 3 or more and less than 10 is denoted as B) | B (a compound having 3 or more and less than 10 is denoted as B) |
| CCO[C@@H]1C[C@H]2C(=O)NC3(CCC3)C(=O)N(C)[C@@H](C3CCCC3)C(=O)N(C)[C@H](C(=O)N3CCOCC3)CC(=O)N(C)[C@@H](CC(C)C)C(=O)N[C@@H]([C@@H](C)CC)C(=O)N(C)CC(=O)N(C)[C@H]3C[C@H]4C[C@H]4CN(C3=O)[C@@H](Cc3ccc(C(F)(F)F)cc3)C(=O)N(C)CC(=O)N[C@@H](CCc3cc(F)c(C(F)(F)F)c(F)c3)C(=O)N2C1 [PP0829] | B (a compound having 3 or more and less than 10 is denoted as B) | C (A compound having a KD ratio of 0.1 or more and less than 3 is denoted as C) |  |  |
| CCO[C@@H]1C[C@H]2C(=O)NC3(CCC3)C(=O)N(C)[C@@H](C3CCCC3)C(=O)N(C)[C@H](C(=O)N3CCOCC3)CC(=O)N(CC)[C@@H](CC(C)C)C(=O)N[C@@H]([C@@H](C)CC)C(=O)N(C)CC(=O)N(C)[C@H]3C[C@@H](C)CCN(C3=O)[C@@H](Cc3ccc(C(F)(F)F)cc3)C(=O)N(C)CC(=O)N[C@@H](CCc3cc(F)c(C(F)(F)F)c(F)c3)C(=O)N2C1 [PP1030] | B (a compound having 3 or more and less than 10 is denoted as B) | B (a compound having 3 or more and less than 10 is denoted as B) |  |  |
| CCO[C@@H]1C[C@H]2C(=O)NC3(CC(C)(C)C3)C(=O)N(C)[C@@H](C(CC)CC)C(=O)N(C)[C@H](C(=O)N(C)C)CC(=O)N(C)[C@@H](CC3CC3)C(=O)N[C@@H]([C@@H](C)CC)C(=O)N(C)CC(=O)N(C)[C@H]3C/C=C\CCN(C3=O)[C@@H](Cc3ccc(C)cc3)C(=O)N(C)CC(=O)N[C@@H](CCc3ccc(C(F)(F)F)c(Cl)c3)C(=O)N2C1 [PP2142] | AA (a compound having 20 or more is denoted as AA) | A (a compound having 10 or more and less than 20 is denoted as A) |  |  |
